Reference: PubChem BioAssay AID1963868 (Molecular Pharmacology Branch, DTP, NCI, 2024)

System: KRAS PDC tumor spheroids (HUVEC+MSC), viability
Assay: Anticancer human tumor 254851-301-R-J1-PDC patient-derived colon carcinoma cell line growth inhibition [KRAS2]
Details: for viability, T/C: stronger effect = lower value
Method in brief: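 KRAS-mutant tumor cells were grown as spheroids with HUVEC endothelial cells and human MSCs as stroma. Targeted agents were tested alone and with KRAS pathway inhibitors. Doses started at or near clinical Cmax, or 10 microM, descending half-log.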

[1] = curve of first compound, second compound 0.1 µM
[2] = curve of first compound, second compound 0.316 µM
[3] = curve of first compound, second compound 1 µM
[4] = curve of first compound, second compound 3.16 µM
[5] = curve of first compound, second compound 10 µM
[6] = second compound 0.1 µM, first compound 0.0316 µM
[7] = second compound 0.1 µM, first compound 0.1 µM
[8] = second compound 0.1 µM, first compound 0.316 µM
[9] = second compound 0.1 µM, first compound 1 µM
[10] = second compound 0.1 µM, first compound 3.16 µM
[11] = second compound 0.1 µM, first compound 10 µM
[12] = second compound 0.316 µM, first compound 0.0316 µM
[13] = second compound 0.316 µM, first compound 0.1 µM
[14] = second compound 0.316 µM, first compound 0.316 µM
[15] = second compound 0.316 µM, first compound 1 µM
[16] = second compound 0.316 µM, first compound 3.16 µM
[17] = second compound 0.316 µM, first compound 10 µM
[18] = second compound 1 µM, first compound 0.0316 µM
[19] = second compound 1 µM, first compound 0.1 µM
[20] = second compound 1 µM, first compound 0.316 µM
[21] = second compound 1 µM, first compound 1 µM
[22] = second compound 1 µM, first compound 3.16 µM
[23] = second compound 1 µM, first compound 10 µM
[24] = second compound 3.16 µM, first compound 0.0316 µM
[25] = second compound 3.16 µM, first compound 0.1 µM
[26] = second compound 3.16 µM, first compound 0.316 µM
[27] = second compound 3.16 µM, first compound 1 µM
[28] = second compound 3.16 µM, first compound 3.16 µM
[29] = second compound 3.16 µM, first compound 10 µM
[30] = second compound 10 µM, first compound 0.0316 µM
[31] = second compound 10 µM, first compound 0.1 µM
[32] = second compound 10 µM, first compound 0.316 µM
[33] = second compound 10 µM, first compound 1 µM
[34] = second compound 10 µM, first compound 3.16 µM
[35] = second compound 10 µM, first compound 10 µM
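Note: spheroids exposed to compounds for seven days before readout.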
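Throughout, for viability, T/C: 100% = DMSO vehicle control luminescence of the spheroids.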

Structure (SMILES)	IC50 [1] [nM]	IC50 [2] [nM]	IC50 [3] [nM]	IC50 [4] [nM]	viability, T/C [6] [%]	viability, T/C [7] [%]	viability, T/C [8] [%]	viability, T/C [9] [%]	viability, T/C [12] [%]	viability, T/C [13] [%]	viability, T/C [14] [%]	viability, T/C [15] [%]	viability, T/C [18] [%]	viability, T/C [19] [%]	viability, T/C [20] [%]	viability, T/C [21] [%]	viability, T/C [24] [%]	viability, T/C [25] [%]	viability, T/C [26] [%]	viability, T/C [27] [%]	further results
Cn1nccc1Nc1nccc(-c2cc3c(s2)C(C)(C)N(CCN2CCOCC2)C3=O)n1 + COc1cc2nc(C)nc(NC(C)c3cc(N)cc(C(F)(F)F)c3)c2cc1OC1CCOC1	1970	1810	1530	564	101	97	82.6	71.5	98.4	83.2	77.2	74.3	85.5	86.7	72.7	70	87.8	80.2	66.5	35	IC50 [5]: 445 nM; viability, T/C [10]: 35.9%; viability, T/C [11]: 3.63%; viability, T/C [16]: 29.1%; viability, T/C [17]: 3.95%; viability, T/C [22]: 17.6%; viability, T/C [23]: 4.11%; viability, T/C [28]: 4.08%; viability, T/C [29]: 2.21%; viability, T/C [30]: 72.2%; viability, T/C [31]: 71.2%; viability, T/C [32]: 56.9%; viability, T/C [33]: 31.1%; viability, T/C [34]: 2.79%; viability, T/C [35]: 1.54%
CC1(C)CCC(CN2CCN(c3ccc(C(=O)NS(=O)(=O)c4ccc(NCC5CCOCC5)c([N+](=O)[O-])c4)c(Oc4cnc5[nH]ccc5c4)c3)CC2)=C(c2ccc(Cl)cc2)C1 + C=CC(=O)N1CCN(c2nc(OCC3CCCN3C)nc3c2CCN(c2cccc4cccc(C)c24)C3)CC1CC#N	> 10000	> 10000	6390	371	98.5	106	92.4	100	106	107	80.9	85.3	88	106	101	81.4	57	56.2	45	36.4	IC50 (curve of first compound, second compound 0.0316 µM): > 10000 nM; viability, T/C (second compound 0.0316 µM, first compound 0.0316 µM): 95.8%; viability, T/C (second compound 0.0316 µM, first compound 0.1 µM): 101%; viability, T/C (second compound 0.0316 µM, first compound 0.316 µM): 97.3%; viability, T/C (second compound 0.0316 µM, first compound 1 µM): 98%; viability, T/C (second compound 0.0316 µM, first compound 3.16 µM): 95.6%; viability, T/C (second compound 0.0316 µM, first compound 10 µM): 90%; viability, T/C [10]: 90.3%; viability, T/C [11]: 86.1%; viability, T/C [16]: 81%; viability, T/C [17]: 73.8%; viability, T/C [22]: 70.7%; viability, T/C [23]: 37.8%; viability, T/C [28]: 0.19%; viability, T/C [29]: 0.19%
Cn1nccc1Nc1nccc(-c2cc3c(s2)C(C)(C)N(CCN2CCOCC2)C3=O)n1 + CNCc1ccccc1-c1csc(C(C)Nc2nc(C)nc3cc(OC)c(OC)cc23)c1	2080	2500	1610	< 31.6	106	97.4	99.6	89.8	90.7	94.5	86.7	81.3	95.4	106	93.3	77.4	25.9	51	58	24.2	IC50 [5]: < 31.6 nM; viability, T/C [10]: 27.4%; viability, T/C [11]: 3.87%; viability, T/C [16]: 42%; viability, T/C [17]: 4.06%; viability, T/C [22]: 11.2%; viability, T/C [23]: 3.35%; viability, T/C [28]: 0.16%; viability, T/C [29]: 0.12%; viability, T/C [30]: 0.09%; viability, T/C [31]: 0.11%; viability, T/C [32]: 0.08%; viability, T/C [33]: 0.06%; viability, T/C [34]: 0.06%; viability, T/C [35]: 0.09%
CCN1CCN(Cc2ccc(Nc3ncc(F)c(-c4cc(F)c5nc(C)n(C(C)C)c5c4)n3)nc2)CC1 + CNCc1ccccc1-c1csc(C(C)Nc2nc(C)nc3cc(OC)c(OC)cc23)c1	661	514	489	< 3.16	76.8	69.1	70.9	40.4	84	63.1	59.9	41	81	62.6	63.1	35.8	26.4	21.7	17.9	14.7	IC50 [5]: < 3.16 nM; viability, T/C (second compound 0.1 µM, first compound 0.00316 µM): 91.4%; viability, T/C (second compound 0.1 µM, first compound 0.01 µM): 94.5%; viability, T/C (second compound 0.316 µM, first compound 0.00316 µM): 110%; viability, T/C (second compound 0.316 µM, first compound 0.01 µM): 86.2%; viability, T/C (second compound 1 µM, first compound 0.00316 µM): 83.4%; viability, T/C (second compound 1 µM, first compound 0.01 µM): 83.6%; viability, T/C (second compound 3.16 µM, first compound 0.00316 µM): 42.2%; viability, T/C (second compound 3.16 µM, first compound 0.01 µM): 35.1%; viability, T/C (second compound 10 µM, first compound 0.00316 µM): 0.07%; viability, T/C (second compound 10 µM, first compound 0.01 µM): 0.09%; viability, T/C [30]: 0.09%; viability, T/C [31]: 0.06%; viability, T/C [32]: 0.07%; viability, T/C [33]: 0.11%
CC(=O)OC12COC1CC(O)C1(C)C(=O)C(O)C3=C(C)C(OC(=O)C(O)C(NC(=O)OC(C)(C)C)c4ccccc4)CC(O)(C(OC(=O)c4ccccc4)C21)C3(C)C (configuration not stated)																					viability, T/C (compound 0.01 µM): 98.5% [middle of 5 runs]; viability, T/C (compound 0.0316 µM): 95.8% [middle of 5 runs]; viability, T/C (compound 0.1 µM): 68.8% [middle of 5 runs]; viability, T/C (compound 0.316 µM): 42.4% [middle of 5 runs]; viability, T/C (compound 1 µM): 28.1% [middle of 5 runs]; viability, T/C (compound 3.16 µM): 25.8% [middle of 5 runs]; IC50 (curve of compound): 217 nM [middle of 5 runs]
